Experimental data from patent CN114106008A, “一种从丹参中提取分离的二萜醌类化合物及其方法和应用” (Chengdu Push Bio Technology Co ltd, priority 2021, dated 2022).

What was measured:
[1] = test system: human diffuse large B lymphoma cells TMD-8 [人弥漫大B淋巴瘤细胞TMD-8]; assay: MTT proliferation inhibition, TMD-8 cells, 72 h; assay type: cell-based
[2] = test system: human acute myeloid leukemia cells MOLM-13 [人急性髓系白血病细胞MOLM-13]; assay: MTT proliferation inhibition, MOLM-13 cells, 72 h; assay type: cell-based
[3] = Water solubility (statement in words); assay type: physicochemical
[4] = test system: human cervical cancer cells HELA [人宫颈癌细胞HELA]; assay: MTT proliferation inhibition, HELA cells, 72 h; assay type: cell-based; details: within the measured range (0.625-20 μg/ml)
[5] = test system: human myelomonocytic leukemia cells MV-4-11 [人髓性单核细胞白血病细胞 MV-4-11]; assay: MTT proliferation inhibition, MV4-11 cells, 72 h; assay type: cell-based
[6] = test system: human large cell lung cancer cells H460 [人大细胞肺癌细胞 H460]; assay: MTT proliferation inhibition, H460 cells, 72 h; assay type: cell-based
[7] = test system: human liver cancer cells HEPG-2 [人肝癌细胞HEPG-2]; assay: MTT proliferation inhibition, HEPG-2 cells, 72 h; assay type: cell-based; details: 0.625-20 μg/ml

IC50 ([1]; MTT): 1.388 µg/mL
IC50 ([2]; MTT): 1.9 µg/mL
water solubility [3]: 水溶性较差
IC50 ([5]; MTT): 1.239 µg/mL
IC50 ([6]; MTT): 1.131 µg/mL
Substance: 呋喃并[2 ' ',3 ' ':5 ' ',6 ' ']萘并[1 ' ',2'':7 ',8 ']环十二烷[1 ',2':5,6]萘并[1,2-b]呋喃-10,11,21,22-四酮,6,7,8,9,19,20-六氢-1,12,17-三甲基-6-亚甲基-,(17E)- [四氢甘西鼠尾新酮A]
inhibition, concentration dependence ([1]; Figure 3, 0.625-20 μg/ml): 呈剂量依赖性
inhibition, concentration dependence ([2]; Figure 3, 0.625-20 μg/ml): 呈剂量依赖性
in vitro inhibitory activity [4]: 在测量范围内未发现抑制活性
inhibition, concentration dependence ([5]; Figure 3, 0.625-20 μg/ml): 呈剂量依赖性
inhibition, concentration dependence ([6]; Figure 3, 0.625-20 μg/ml): 呈剂量依赖性
in vitro inhibitory activity [7]: 体外抑制活性较弱
